pEC50: −log10 of the molar value.
Test: Cell Surface Biotinylation Assay: Huh7.5.1 cells from four 150 mm plates were treated with DMSO, Roc-A (20 nM), or infected by HCVcc. 48 h post-transfection, cells were washed three times with ice-cold PBS and resuspended in PBS at a density of 25×10^6 cells/ml. Freshly prepared Sulfo-NHS-SS-biotin (Pierce) was added to the cells (final concentration […]) and allowed to incubate at 4° C. for 30 min. Cells were then washed three times with ice-cold PBS. 25 mM Tris (pH 8.0) was added in the initial wash to quench any non-reacted biotin reagent. Following cell lysis in RIPA buffer (50 mM Tris-HCl [pH 7.5], 150 mM NaCl, 1% NP-40, 0.25% sodium deoxycholate, 1 mM EDTA, 2 mM Na3VO4 and Pierce protease inhibitor cocktail), lysates were cleared by centrifugation at 13,000×g for 15 min at 4° C. The cleared lysates were used for immunoprecipitation using a 1:1 mixture of Streptavidin beads (Pierce). Beads were washed three times with RIPA buffer, and bound proteins were eluted by boiling the samples in SDS-PAGE sample buffer and then resolved on 9% SDS-PAGE. Biotinylated proteins were detected by anti-PHB1 and anti-PHB2 antibodies.
Details: Huh-7.5.1

Structure (SMILES): COc1ccc([C@@]23Oc4cc(OC)cc(OC)c4[C@]2(O)c2nc4n(c(=O)c2[C@H]3c2ccccc2)CCC4)cc1 (racemic)
- pEC50: 7.00

From ChEMBL document CHEMBL5725732, “Aglaroxin C and derivatives as HCV entry inhibitors” (2018)
